From patent US20230117034A1, “PYRAZOLOTRIAZINES” (Bayer Aktiengesellschaft, priority 2019, published 2023)

Columns and labels:
[1] = target: T1, CYCLIN K (nuclear staining in CAL-120 cells) (Homo sapiens, UniProt O75909); assay: CYCLIN K nuclear protein level: immunofluorescence high content analysis (CAL-120); format: cell-based; conditions: 24 h, 50% reduction of nuclear CCNK staining intensity, median, read-out: CYCLIN K degradation IF, DC50-[mol/l] (median)
T1 construct: endogenous in cells; host or cells: CAL-120 human breast cancer cells (DSMZ ACC 459)
T1 sequence (O75909 whole entry): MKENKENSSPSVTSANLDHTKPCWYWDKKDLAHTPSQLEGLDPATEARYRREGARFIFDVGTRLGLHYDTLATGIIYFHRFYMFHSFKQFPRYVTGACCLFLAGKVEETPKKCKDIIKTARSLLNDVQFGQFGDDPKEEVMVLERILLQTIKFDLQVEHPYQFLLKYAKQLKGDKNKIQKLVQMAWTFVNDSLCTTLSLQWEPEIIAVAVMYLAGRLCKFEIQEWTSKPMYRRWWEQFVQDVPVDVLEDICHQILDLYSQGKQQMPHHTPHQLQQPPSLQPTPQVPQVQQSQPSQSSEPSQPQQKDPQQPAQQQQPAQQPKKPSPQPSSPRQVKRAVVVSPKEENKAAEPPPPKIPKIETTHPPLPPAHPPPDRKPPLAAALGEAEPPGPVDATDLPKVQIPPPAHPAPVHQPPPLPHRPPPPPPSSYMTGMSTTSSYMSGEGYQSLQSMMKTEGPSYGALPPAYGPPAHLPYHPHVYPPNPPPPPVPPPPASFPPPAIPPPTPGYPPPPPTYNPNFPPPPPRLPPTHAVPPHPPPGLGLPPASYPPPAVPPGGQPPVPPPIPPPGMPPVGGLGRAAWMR
T1 sequence (Q9NYV4 whole entry partner): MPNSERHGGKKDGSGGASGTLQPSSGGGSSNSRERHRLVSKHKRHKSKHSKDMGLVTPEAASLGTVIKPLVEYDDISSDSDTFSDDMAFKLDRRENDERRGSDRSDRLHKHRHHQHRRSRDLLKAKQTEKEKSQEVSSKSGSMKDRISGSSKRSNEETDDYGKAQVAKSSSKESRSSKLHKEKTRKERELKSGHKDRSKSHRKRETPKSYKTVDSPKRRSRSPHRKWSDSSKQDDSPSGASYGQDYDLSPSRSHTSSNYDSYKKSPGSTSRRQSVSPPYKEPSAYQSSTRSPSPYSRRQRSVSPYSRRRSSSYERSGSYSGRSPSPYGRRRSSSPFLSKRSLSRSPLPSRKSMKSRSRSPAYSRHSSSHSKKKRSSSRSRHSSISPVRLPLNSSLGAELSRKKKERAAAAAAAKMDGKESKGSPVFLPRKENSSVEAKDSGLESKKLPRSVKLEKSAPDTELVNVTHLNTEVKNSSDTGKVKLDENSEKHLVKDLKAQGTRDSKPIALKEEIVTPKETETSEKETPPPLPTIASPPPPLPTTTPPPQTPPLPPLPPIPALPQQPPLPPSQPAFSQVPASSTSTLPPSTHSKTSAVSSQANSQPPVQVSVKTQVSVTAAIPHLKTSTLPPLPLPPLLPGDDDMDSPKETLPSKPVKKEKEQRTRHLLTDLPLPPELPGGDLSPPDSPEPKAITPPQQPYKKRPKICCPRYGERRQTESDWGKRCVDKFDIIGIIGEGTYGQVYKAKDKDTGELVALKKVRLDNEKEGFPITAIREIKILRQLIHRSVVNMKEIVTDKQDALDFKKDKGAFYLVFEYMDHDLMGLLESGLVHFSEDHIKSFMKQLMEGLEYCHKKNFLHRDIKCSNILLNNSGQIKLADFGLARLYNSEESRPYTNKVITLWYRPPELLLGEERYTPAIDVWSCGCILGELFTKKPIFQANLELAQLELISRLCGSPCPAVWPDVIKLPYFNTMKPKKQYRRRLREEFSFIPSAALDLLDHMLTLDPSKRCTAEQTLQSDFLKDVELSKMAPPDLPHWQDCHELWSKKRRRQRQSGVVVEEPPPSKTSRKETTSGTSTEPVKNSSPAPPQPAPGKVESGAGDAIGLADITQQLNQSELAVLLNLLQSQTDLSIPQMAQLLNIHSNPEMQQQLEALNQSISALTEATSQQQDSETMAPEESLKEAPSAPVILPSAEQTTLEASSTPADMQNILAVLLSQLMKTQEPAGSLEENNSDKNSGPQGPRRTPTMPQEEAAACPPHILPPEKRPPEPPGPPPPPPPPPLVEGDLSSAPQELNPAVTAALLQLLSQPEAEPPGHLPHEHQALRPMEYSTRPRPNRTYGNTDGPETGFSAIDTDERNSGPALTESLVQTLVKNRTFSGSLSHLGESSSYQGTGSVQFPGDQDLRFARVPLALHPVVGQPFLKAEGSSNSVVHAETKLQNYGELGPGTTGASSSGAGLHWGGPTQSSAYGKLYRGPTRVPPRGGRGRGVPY
Summary of the method: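 CAL-120 breast cancer cells treated in dose-response for 24 h at 37 °C, PFA-fixed and immunostained for cyclin K with Hoechst counterstain. Confocal imaging quantified nuclear intensity; DC50 is the concentration giving 50% reduction of nuclear CCNK staining, normalized to DMSO and control.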

CDK9/CycT1 = target: T2, CDK9/CycT1 (Homo sapiens, UniProt P50750); assay: CDK9/CycT1 high ATP kinase assay (TR-FRET, 2 mM ATP); format: biochemical; conditions: 2 mM ATP (high ATP); median; read-out: CDK9/CyclinT1, 2 mM ATP (high ATP), IC50 (median)
T2 construct: Recombinant full-length His-tagged human CDK9 and CycT1; purchased Life Technologies PV4131; host or cells: insect cells
T2 sequence (P50750 whole entry): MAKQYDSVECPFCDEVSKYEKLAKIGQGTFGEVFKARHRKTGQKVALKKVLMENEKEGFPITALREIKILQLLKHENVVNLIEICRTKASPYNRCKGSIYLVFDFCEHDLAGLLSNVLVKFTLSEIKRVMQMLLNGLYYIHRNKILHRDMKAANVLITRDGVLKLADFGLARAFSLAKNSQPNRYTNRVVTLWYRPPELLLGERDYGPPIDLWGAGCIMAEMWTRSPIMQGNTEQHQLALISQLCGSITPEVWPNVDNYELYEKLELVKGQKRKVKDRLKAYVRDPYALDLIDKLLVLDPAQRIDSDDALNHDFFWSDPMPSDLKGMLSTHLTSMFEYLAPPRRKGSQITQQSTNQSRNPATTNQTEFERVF
T2 sequence (O60563 whole entry partner): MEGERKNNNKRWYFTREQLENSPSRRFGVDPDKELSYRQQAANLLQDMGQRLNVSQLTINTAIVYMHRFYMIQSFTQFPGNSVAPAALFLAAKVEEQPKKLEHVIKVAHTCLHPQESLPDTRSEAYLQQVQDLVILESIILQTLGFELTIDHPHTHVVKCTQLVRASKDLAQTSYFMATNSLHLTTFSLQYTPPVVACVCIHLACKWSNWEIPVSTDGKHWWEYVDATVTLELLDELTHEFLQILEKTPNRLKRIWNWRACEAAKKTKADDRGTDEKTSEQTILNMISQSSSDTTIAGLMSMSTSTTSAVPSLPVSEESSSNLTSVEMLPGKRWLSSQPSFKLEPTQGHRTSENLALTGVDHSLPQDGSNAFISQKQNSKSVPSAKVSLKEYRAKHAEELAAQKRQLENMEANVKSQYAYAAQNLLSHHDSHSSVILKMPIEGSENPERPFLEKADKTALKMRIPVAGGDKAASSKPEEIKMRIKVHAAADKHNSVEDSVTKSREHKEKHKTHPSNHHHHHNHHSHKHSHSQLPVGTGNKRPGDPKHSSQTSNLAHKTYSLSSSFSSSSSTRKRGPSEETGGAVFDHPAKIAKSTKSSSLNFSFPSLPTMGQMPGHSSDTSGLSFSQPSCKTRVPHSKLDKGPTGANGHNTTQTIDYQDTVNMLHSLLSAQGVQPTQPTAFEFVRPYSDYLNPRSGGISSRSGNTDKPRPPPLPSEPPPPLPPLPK
Summary of the method: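 Full-length His-tagged human CDK9/CycT1 (insect cell, ~0.5 μg/mL) preincubated 15 min at 22 °C with compound in Tris pH 8.0, MgCl2, DTT buffer before reaction with biotinylated peptide substrate at high ATP (2 mM).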

[2] = system: MDA-MB-231, human breast cancer cells; assay: Proliferation assay MDA-MB-231 (crystal violet, 4 days); format: cell-based; conditions: Homo sapiens, MDA-MB-231, 96 h, MDA-MB-231 cells, median, read-out: Prolif-MDA MB-231, IC50-[mol/l] (median)
Summary of the method: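 Plated 4,000 cells/well, 10% FCS; 24 h later treated 0.01-10 µmol/L cpd (DMSO 0.1%), 4 d. Fix glutaraldehyde, stain 0.1% crystal violet pH 3.0, elute acetic acid, A595. Normalized to t0 plate/untreated; 4-param IC50.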

[3] = target: T3, CDK12 (nuclear staining in CAL-120 cells) (Homo sapiens, UniProt Q9NYV4); assay: CDK12 nuclear protein level: immunofluorescence/high content analysis (CAL-120); format: cell-based; conditions: for DC50: CAL-120 cells, 24 h, immunofluorescence, 50% reduction of nuclear CDK12 staining intensity, median, read-out: CDK12 degradation IF, DC50- [mol/l] (median); for (IC50 CDK12 high ATP) to (Degradation DC50 CDK12) ratio: ratio of IC50 CDK12 high ATP kinase assay to DC50 CDK12 degradation (IF, CAL-120)
T3 construct: endogenous in cells; host or cells: CAL-120 human breast cancer cells (DSMZ ACC 459)
T3 sequence (Q9NYV4 whole entry): as the sequence (Q9NYV4 whole entry partner) above
T3 sequence (O75909 whole entry partner): as the sequence (O75909 whole entry) above
Summary of the method: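 CAL-120 cells were treated with compound for 24 h at 37 °C, fixed with PFA and immunostained for CDK12. Nuclear CDK12 intensity was quantified by automated image analysis and normalized to DMSO and control. DC50 is the concentration giving 50% reduction of nuclear staining.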

SMILES	DC50 [1] [nM]	IC50 (CDK9/CycT1) [nM]	IC50 [2] [nM]	DC50 [3] [nM]	(IC50 CDK12 high ATP) to (Degradation DC50 CDK12) ratio [3]
Cn1cc(-c2cnn3c(NCc4nc5cc(Cl)c(Cl)cc5[nH]4)nc(N4CCOCC4)nc23)cn1 [Example 419, N-[(5,6-dichloro-1H-benzimidazol-2-yl)methyl]-8-(1-methyl-1H-pyrazol-4-yl)-2-(morpholin-4-yl)pyrazolo[1,5-a][1,3,5]triazin-4-amine]	9.09	> 20000	228	38.7	>517
Fc1ccc2[nH]c(CNc3nc(N4CCOCC4)nc4c(-c5nccs5)cnn34)nc2c1F [Example 413, N-[(4,5-difluoro-1H-benzimidazol-2-yl)methyl]-2-(morpholin-4-yl)-8-(1,3-thiazol-2-yl)pyrazolo [1,5-a][1,3,5]triazin-4-amine]	6.91	> 20000	298	19.8	>1012
Cc1cnn2c(NCc3nc4c(F)c(F)ccc4[nH]3)nc(N(C)CC(C)(C)O)nc12 [Example 395, 1-[(4-{[(4,5-difluoro-1H-benzimidazol-2-yl)methyl]amino}-8-methylpyrazolo[1,5-a][1,3,5]triazin-2-yl)(methyl)amino]-2-methylpropan-2-ol]	0.884	> 20000	34	8	800
CCc1cnn2c(NCc3nc4c(F)c(F)ccc4[nH]3)nc(N3CCOCC3)nc12 [Example 432, N-[(4,5-difluoro-1H-benzimidazol-2-yl)methyl]-8-ethyl-2-(morpholin-4-yl)pyrazolo[1,5-a][1,3,5]triazin-4-amine]	0.353	15700	8.53	0.948	2425
Fc1ccc2[nH]c(CNc3nc(N4CCOCC4)nc4c(C(F)(F)F)cnn34)nc2c1F [Example 426, N-[(4,5-difluoro-1H-benzimidazol-2-yl)methyl]-2-(morpholin-4-yl)-8-(trifluoromethyl)pyrazolo [1,5-a][1,3,5]triazin-4-amine]	0.511	12700	4.19	0.751	32
CN1CCN(c2nc(NCc3nc4c(F)c(F)ccc4[nH]3)n3ncc(CC(F)(F)F)c3n2)CC1 [Example 437, N-[(4,5-difluoro-1H-benzimidazol-2-yl)methyl]-2-(4-methylpiperazin-1-yl)-8-(2,2,2-trifluoroethyl) pyrazolo[1,5-a][1,3,5]triazin-4-amine]	2.09	> 20000	45.8	1.76	>11369
N#Cc1cnn2c(NCc3nc4ccccc4[nH]3)nc(N3CCOCC3)nc12 [Example 43, 4-{[(1H-benzimidazol-2-yl)methyl]amino}-2-(morpholin-4-yl)pyrazolo[1,5-a][1,3,5]triazine-8-carbonitrile]	5.35	> 20000		9.58	>1754
Brc1cnn2c(NCc3nnc(-c4ccccn4)[nH]3)nc(N3CCOCC3)nc12 [Example 54, 8-bromo-2-(morpholin-4-yl)-N-{[5-(pyridin-2-yl)-4H-1,2,4-triazol-3-yl]methyl}pyrazolo[1,5-a][1,3,5]triazin-4-amine]	10.2	6240		37.8	150
CC1(C)CN(c2nc(NCc3nc4ccccc4[nH]3)n3ncc(Br)c3n2)CCO1 [Example 58, N-[(1H-benzimidazol-2-yl)methyl]-8-bromo-2-(2,2-dimethylmorpholin-4-yl)pyrazolo[1,5-a][1,3,5]triazin-4-amine]	1.66	> 20000		26.1	246
